PubChem BioAssay AID248 (DTP/NCI, 2004)
Where “and” joins values, the source holds several entries; their conditions need not be identical. Equal entries are not always repeated. Inconclusive results and toxic doses are left out. No stated cut-off is given here; in the data, active means T/C of 150% or more; inactive means T/C below 125%.

Test system: L1210 leukemia ip in BDF1 mice, survival T/C
Assay: NCI In Vivo Anticancer Drug Screen. Data for tumor model L1210 Leukemia (intraperitoneal) in B6D2F1 (BDF1) mice
Details: endpoint: mean survival time, higher = longer survival
How it was run: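 Survival endpoint. Drug-treated group vs vehicle group, expressed as T divided by C. Tumor passaged by transplantation.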

[1] = dose: 100.0 mg/kg/injection, schedule: Q01DX009 (ip), vehicle: Klucel (hydroxypropylcellulose) (HPC)
[2] = dose: 100.0 mg/kg/injection, schedule: Q04DX003 (ip), vehicle: Klucel (hydroxypropylcellulose) (HPC)
[3] = dose: 200.0 mg/kg/injection, schedule: Q01DX009 (ip), vehicle: Klucel (hydroxypropylcellulose) (HPC)
[4] = dose: 200.0 mg/kg/injection, schedule: Q04DX003 (ip), vehicle: Klucel (hydroxypropylcellulose) (HPC)
[5] = dose: 400.0 mg/kg/injection, schedule: Q04DX003 (ip), vehicle: Klucel (hydroxypropylcellulose) (HPC)
[6] = dose: 400.0 mg/kg/injection, schedule: Q01DX009 (ip), vehicle: Klucel (hydroxypropylcellulose) (HPC)
[7] = dose: 100.0 mg/kg/injection, schedule: Q01DX009 (ip), vehicle: saline
[8] = dose: 100.0 mg/kg/injection, schedule: Q01DX001 (ip), vehicle: Klucel (hydroxypropylcellulose) (HPC)
[9] = dose: 200.0 mg/kg/injection, schedule: Q01DX001 (ip), vehicle: Klucel (hydroxypropylcellulose) (HPC)
[10] = dose: 400.0 mg/kg/injection, schedule: Q01DX001 (ip), vehicle: Klucel (hydroxypropylcellulose) (HPC)

Measured: T/C

CC1(C)C(=O)Nc2ccccc2N1C(=O)CN1CCCC1
inactive: dose: 9.37 mg/kg/injection, schedule: Q01DX009 (ip), vehicle: acetone 97 % of control | dose: 18.75 mg/kg/injection, schedule: Q01DX009 (ip), vehicle: acetone 88 % of control | dose: 37.5 mg/kg/injection, schedule: Q01DX009 (ip), vehicle: acetone 98 % of control | dose: 37.5 mg/kg/injection, schedule: Q04DX003 (ip), vehicle: saline 100 % of control | dose: 75.0 mg/kg/injection, schedule: Q01DX001 (ip), vehicle: saline 102 % of control | dose: 75.0 mg/kg/injection, schedule: Q04DX003 (ip), vehicle: saline 91 % of control | dose: 150.0 mg/kg/injection, schedule: Q01DX001 (ip), vehicle: saline 109 % of control

CCCCCN(C)N=Nc1ccccc1C(N)=O
inactive: dose: 100.0 mg/kg/injection, schedule: Q01DX001 (ip), vehicle: other 106 % of control | [1] 114 % of control | [2] 109 % of control | dose: 200.0 mg/kg/injection, schedule: Q01DX001 (ip), vehicle: other 112 % of control | [3] 115 % of control | [4] 101 % of control | dose: 400.0 mg/kg/injection, schedule: Q01DX001 (ip), vehicle: other 115 % of control | [5] 112 % of control

N#Cc1cccc(OCCCCOc2ccccc2)c1
inactive: [1] 89 % of control | [3] 109 % of control | [6] 95 % of control

CCOc1ccc(NC(=O)c2c(Br)c(Br)c(Br)c(Br)c2C(=O)O)cc1
inactive: [1] 102 % of control | [3] 87 % of control

CC(=O)NC1COC(O)C(O)C1O (configuration not stated)
inactive: dose: 100.0 mg/kg/injection, schedule: Q04DX003 (ip), vehicle: saline 94 % of control | dose: 200.0 mg/kg/injection, schedule: Q04DX003 (ip), vehicle: saline 101 % of control | dose: 400.0 mg/kg/injection, schedule: Q04DX003 (ip), vehicle: saline 101 % of control

c1ccc2c(c1)C1CC(N3CCCCC3)C2c2ccccc21 (configuration not stated)
inactive: [7] 102 % of control | dose: 100.0 mg/kg/injection, schedule: Q04DX003 (ip), vehicle: alcohol 95 % of control | dose: 200.0 mg/kg/injection, schedule: Q04DX003 (ip), vehicle: alcohol 95 % of control | dose: 400.0 mg/kg/injection, schedule: Q01DX009 (ip), vehicle: saline 100 % of control | dose: 400.0 mg/kg/injection, schedule: Q04DX003 (ip), vehicle: alcohol 93 % of control

O=C(Cc1ccccc1)Nc1cccc(O)c1
inactive: dose: 100.0 mg/kg/injection, schedule: Q01DX001 (ip), vehicle: saline with Tween-80 97 % of control | dose: 200.0 mg/kg/injection, schedule: Q01DX001 (ip), vehicle: saline with Tween-80 96 % of control | dose: 400.0 mg/kg/injection, schedule: Q01DX001 (ip), vehicle: saline with Tween-80 95 % of control

COc1ccc(OC)c(NC(=S)N/N=C(\C)c2ccc(O)c(C)c2)c1
inactive: dose: 12.5 mg/kg/injection, schedule: Q04DX002 (ip), vehicle: Klucel (hydroxypropylcellulose) (HPC) 97 % of control | dose: 25.0 mg/kg/injection, schedule: Q04DX002 (ip), vehicle: Klucel (hydroxypropylcellulose) (HPC) 115 % of control

CC/C=N/Nc1ccnc(SCc2ccccc2)n1
inactive: dose: 100.0 mg/kg/injection, schedule: Q04DX003 (ip), vehicle: gum acacia 103 % of control | dose: 200.0 mg/kg/injection, schedule: Q04DX003 (ip), vehicle: gum acacia 97 % of control | dose: 400.0 mg/kg/injection, schedule: Q04DX003 (ip), vehicle: gum acacia 94 % of control

CNC(=O)Oc1cc(OC)ccc1C(=O)c1ccccc1
inactive: [1] 94 % of control | [3] 96 % of control | [6] 97 % of control

NC(CSCCc1ccc([N+](=O)[O-])cc1)C(=O)O (configuration not stated)
inactive: [2] 105 % of control | [4] 96 % of control | [5] 93 % of control

Nc1ccc(S(=O)(=O)F)cc1N
inactive: dose: 100.0 mg/kg/injection, schedule: Q01DX001 (ip), vehicle: acetone 101 % of control | dose: 100.0 mg/kg/injection, schedule: Q01DX009 (ip), vehicle: acetone 96 % of control | dose: 200.0 mg/kg/injection, schedule: Q01DX001 (ip), vehicle: acetone 101 % of control | dose: 200.0 mg/kg/injection, schedule: Q01DX009 (ip), vehicle: acetone 93 % of control | dose: 400.0 mg/kg/injection, schedule: Q01DX001 (ip), vehicle: acetone 103 % of control

O=C(CCCN1CCC2(CC1)C(=O)NCN2c1ccccc1)c1ccccc1
inactive: dose: 10.0 mg/kg/injection, schedule: Q04DX003 (ip), vehicle: Klucel (hydroxypropylcellulose) (HPC) 96 % of control | dose: 20.0 mg/kg/injection, schedule: Q04DX003 (ip), vehicle: Klucel (hydroxypropylcellulose) (HPC) 98 % of control | dose: 40.0 mg/kg/injection, schedule: Q04DX003 (ip), vehicle: Klucel (hydroxypropylcellulose) (HPC) 101 % of control

COCC(=O)O
inactive: [8] 100 % of control | dose: 100.0 mg/kg/injection, schedule: Q04DX002 (ip), vehicle: saline 102 % of control | [9] 96 % of control | dose: 200.0 mg/kg/injection, schedule: Q04DX002 (ip), vehicle: saline 94 % of control | [10] 100 % of control | dose: 400.0 mg/kg/injection, schedule: Q04DX002 (ip), vehicle: saline 97 % of control

CC(=O)OC1CCC(C(C)(C)C)CC1 (configuration not stated)
inactive: dose: 100.0 mg/kg/injection, schedule: Q01DX009 (ip), vehicle: saline with Tween-80 98 % of control | dose: 200.0 mg/kg/injection, schedule: Q01DX009 (ip), vehicle: saline with Tween-80 95 % of control

CCC(CC)(C(=O)O)C(=O)O
inactive: dose: 25.0 mg/kg/injection, schedule: Q04DX003 (ip), vehicle: Klucel (hydroxypropylcellulose) (HPC) 93 % of control | dose: 50.0 mg/kg/injection, schedule: Q04DX003 (ip), vehicle: Klucel (hydroxypropylcellulose) (HPC) 90 % of control | [2] 96 % of control and 88 % of control

COc1ccccc1-n1c(O)c(N=Nc2ccccc2C)c(=O)n(-c2ccc(Cl)cc2)c1=S
inactive: [8] 95 % of control | [9] 96 % of control | [10] 98 % of control

CON(C)S(=O)c1ccc([N+](=O)[O-])cc1 (configuration not stated)
inactive: [2] 100 % of control | [4] 97 % of control | [5] 94 % of control

NNC(=O)CNc1ccc(Br)cc1
inactive: dose: 100.0 mg/kg/injection, schedule: Q04DX002 (ip), vehicle: Klucel (hydroxypropylcellulose) (HPC) 112 % of control | dose: 200.0 mg/kg/injection, schedule: Q04DX002 (ip), vehicle: Klucel (hydroxypropylcellulose) (HPC) 106 % of control

CC(C)=CCC(=O)OC(CC=C(C)C)(c1ccccc1)C(C)CN(C)C (configuration not stated)
inactive: dose: 25.0 mg/kg/injection, schedule: Q01DX009 (ip), vehicle: saline 100 % of control | dose: 50.0 mg/kg/injection, schedule: Q01DX009 (ip), vehicle: saline 90 % of control | [7] 89 % of control

CC12CCC(=O)CC1CCC1C2CCC2(C)C(C(=O)O)CCC12 (configuration not stated)
inactive: dose: 25.0 mg/kg/injection, schedule: Q04DX002 (ip), vehicle: saline with Tween-80 99 % of control | dose: 50.0 mg/kg/injection, schedule: Q04DX002 (ip), vehicle: saline with Tween-80 96 % of control | dose: 100.0 mg/kg/injection, schedule: Q04DX002 (ip), vehicle: saline with Tween-80 108 % of control

Cc1cc(CC(=S)[S-])[n+](C)c(CC(=S)S)c1
inactive: dose: 87.5 mg/kg/injection, schedule: Q01DX009 (ip), vehicle: Klucel (hydroxypropylcellulose) (HPC) 105 % of control | dose: 175.0 mg/kg/injection, schedule: Q01DX009 (ip), vehicle: Klucel (hydroxypropylcellulose) (HPC) 101 % of control
